Results published in BindingDB's records for doi:10.1002/cbic.200900750 (University of Toronto, 2010).

Target: T1, Alpha-mannosidase 2 (Drosophila melanogaster, UniProt Q24451)
T1 sequence (Q24451 whole entry): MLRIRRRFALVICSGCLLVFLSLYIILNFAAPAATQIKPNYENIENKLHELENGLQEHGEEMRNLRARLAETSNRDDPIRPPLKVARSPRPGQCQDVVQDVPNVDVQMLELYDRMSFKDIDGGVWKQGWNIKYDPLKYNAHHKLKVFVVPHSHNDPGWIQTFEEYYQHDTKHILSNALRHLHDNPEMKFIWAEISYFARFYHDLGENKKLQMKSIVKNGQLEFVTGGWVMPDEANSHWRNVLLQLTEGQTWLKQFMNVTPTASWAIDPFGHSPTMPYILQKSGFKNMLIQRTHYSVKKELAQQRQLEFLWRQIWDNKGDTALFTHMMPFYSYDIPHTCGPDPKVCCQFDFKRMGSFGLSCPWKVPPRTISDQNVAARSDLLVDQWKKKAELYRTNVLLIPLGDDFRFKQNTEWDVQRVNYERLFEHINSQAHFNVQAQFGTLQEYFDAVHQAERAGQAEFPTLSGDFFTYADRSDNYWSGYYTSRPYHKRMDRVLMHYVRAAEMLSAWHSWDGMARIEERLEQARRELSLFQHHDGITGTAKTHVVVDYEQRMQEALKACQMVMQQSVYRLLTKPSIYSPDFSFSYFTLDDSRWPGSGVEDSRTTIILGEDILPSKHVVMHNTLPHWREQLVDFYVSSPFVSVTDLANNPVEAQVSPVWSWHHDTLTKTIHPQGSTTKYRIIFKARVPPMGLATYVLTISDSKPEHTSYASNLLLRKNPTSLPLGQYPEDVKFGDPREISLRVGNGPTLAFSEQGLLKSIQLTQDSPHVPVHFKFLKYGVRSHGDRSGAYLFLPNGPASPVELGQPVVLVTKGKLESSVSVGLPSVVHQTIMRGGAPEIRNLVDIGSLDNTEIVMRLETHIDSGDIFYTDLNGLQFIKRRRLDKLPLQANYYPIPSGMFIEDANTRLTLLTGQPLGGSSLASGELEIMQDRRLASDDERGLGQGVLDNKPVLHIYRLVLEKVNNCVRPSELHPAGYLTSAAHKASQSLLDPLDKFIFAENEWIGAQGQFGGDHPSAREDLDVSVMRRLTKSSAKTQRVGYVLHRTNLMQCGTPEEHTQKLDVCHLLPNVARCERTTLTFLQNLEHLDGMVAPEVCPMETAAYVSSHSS
Assay: Inhibition Assay
Settings: pH 5.75; 25 °C

## O=C(C[C@H]1CC[C@@H](O)C2[C@H](O)[C@H](O)CN21)c1ccccc1 (stereo not given in full) [Swainsonine derivative, 2]
  IC50: 30 nM

## Cc1ccc(C(=O)C[C@H]2CC[C@@H](O)C3[C@H](O)[C@H](O)CN32)cc1 (stereo not given in full) [Swainsonine derivative, 3]
  IC50: 29 nM

## O[C@H]1[C@H]2[C@H](O)CCCN2C[C@H]1O [(-)-swainsonine]
  IC50: 37 nM
  Ki: 3 nM

## CC(C)(C)c1ccc(C(=O)C[C@H]2CC[C@@H](O)C3[C@H](O)[C@H](O)CN32)cc1 (stereo not given in full) [Swainsonine derivative, 4]
  IC50: 29 nM
